Results: ChEMBL document CHEMBL1201862, “PubChem BioAssay data set” (2004)
The source made the active and inactive calls.

Assays:
[1] = microbe, parasite or virus in culture; type: functional; settings: Mycobacterium tuberculosis
[2] = target: T1, Corticotropin-releasing factor receptor 2/Corticotropin-releasing factor-binding protein (Homo sapiens, UniProt P24387+Q13324); experiment: activators of CRF receptor 2 with binding protein – uHTS hits, confirmation (AID 602473); type: functional; settings: read-out: EC50_Mean
T1 sequence (Q13324 whole entry): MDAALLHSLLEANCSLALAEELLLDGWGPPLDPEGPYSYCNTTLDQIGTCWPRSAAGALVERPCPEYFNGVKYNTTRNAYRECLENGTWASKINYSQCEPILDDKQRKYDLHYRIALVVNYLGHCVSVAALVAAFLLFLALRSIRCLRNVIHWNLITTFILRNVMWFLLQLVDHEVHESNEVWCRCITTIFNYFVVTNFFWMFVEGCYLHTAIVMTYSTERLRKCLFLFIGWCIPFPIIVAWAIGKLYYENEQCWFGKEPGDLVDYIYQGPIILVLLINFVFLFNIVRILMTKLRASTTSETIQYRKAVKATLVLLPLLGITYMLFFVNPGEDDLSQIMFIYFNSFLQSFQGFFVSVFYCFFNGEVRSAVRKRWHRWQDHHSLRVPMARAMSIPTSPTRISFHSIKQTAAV
T1 sequence (P24387 whole entry): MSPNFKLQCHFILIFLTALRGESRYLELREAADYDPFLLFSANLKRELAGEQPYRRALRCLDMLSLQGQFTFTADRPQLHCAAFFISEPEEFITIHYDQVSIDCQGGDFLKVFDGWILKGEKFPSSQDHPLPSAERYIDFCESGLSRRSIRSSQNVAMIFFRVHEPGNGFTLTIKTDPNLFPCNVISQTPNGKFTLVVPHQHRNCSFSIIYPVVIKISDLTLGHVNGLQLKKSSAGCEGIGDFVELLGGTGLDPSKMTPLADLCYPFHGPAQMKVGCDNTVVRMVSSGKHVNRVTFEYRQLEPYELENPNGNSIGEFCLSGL

[3] = target: FAD-linked sulfhydryl oxidase ALR (Homo sapiens, UniProt P55789); experiment: ALR-catalysed DTT oxidation blockers – biochemical, H2O2 detection, luminescence, cherry-pick, dose response (AID 493248)
Chain of FAD-linked sulfhydryl oxidase ALR (P55789 whole entry): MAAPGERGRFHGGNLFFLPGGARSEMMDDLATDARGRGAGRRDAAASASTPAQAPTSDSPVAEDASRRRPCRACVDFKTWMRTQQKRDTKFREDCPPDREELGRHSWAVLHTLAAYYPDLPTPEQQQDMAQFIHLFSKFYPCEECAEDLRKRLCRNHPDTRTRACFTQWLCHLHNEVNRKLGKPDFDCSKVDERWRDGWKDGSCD

[4] = target: T2, Rac GTPase-activating protein 1 (Homo sapiens, UniProt Q9H0H5); experiment: blockers of MgcRacGAP-driven Rac1 GTP hydrolysis – biochemical, ADP Hunter fluorescence, primary and confirmatory, confirmation (AID 624330); type: functional
T2 sequence (Q9H0H5 whole entry): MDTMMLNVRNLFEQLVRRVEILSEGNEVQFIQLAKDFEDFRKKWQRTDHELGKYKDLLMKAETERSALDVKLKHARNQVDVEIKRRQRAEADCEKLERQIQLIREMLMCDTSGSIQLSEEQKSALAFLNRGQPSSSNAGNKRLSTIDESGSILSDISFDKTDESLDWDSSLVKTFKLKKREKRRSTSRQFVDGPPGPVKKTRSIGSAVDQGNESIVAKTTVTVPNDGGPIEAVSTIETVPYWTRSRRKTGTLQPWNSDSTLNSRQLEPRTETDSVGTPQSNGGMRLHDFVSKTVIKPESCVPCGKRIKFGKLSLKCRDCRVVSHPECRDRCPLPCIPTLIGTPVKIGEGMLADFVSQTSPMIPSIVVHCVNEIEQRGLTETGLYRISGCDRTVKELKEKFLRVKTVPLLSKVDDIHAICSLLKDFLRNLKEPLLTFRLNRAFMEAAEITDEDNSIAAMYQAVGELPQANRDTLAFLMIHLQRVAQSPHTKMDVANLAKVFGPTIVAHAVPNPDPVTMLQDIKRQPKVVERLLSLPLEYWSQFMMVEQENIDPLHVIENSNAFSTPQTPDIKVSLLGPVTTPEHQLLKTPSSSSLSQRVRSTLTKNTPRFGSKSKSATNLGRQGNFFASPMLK

[5] = viability of PTEN-deleted HCT116 cells – cell-based, HCT116 PTEN knockout, dose response (AID 1047); type: functional;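 note: HCT116 colon tumor cells with PTEN knocked out; cells exposed to compound for 60 hours before readout; potency for loss of cell viability measured by luminescence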
[6] = viability of HCT116 lacking mutant beta-catenin – cell-based, human colon tumor, dose response (AID 1045); type: functional;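 note: HCT116 colon tumor cells with beta catenin knocked out; cells exposed to compound for 60 hours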
[7] = target: T3, Fatty acid synthase (Homo sapiens, UniProt P49327); experiment: inhibition of human FAS-TE enzyme activity – biochemical, kinetic fluorescence intensity, dose response (AID 624326); type: functional;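 note: rate of fluorescence rise from hydrolysis of a fluorogenic O-methyl fluorescein ester substrate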
T3 sequence (P49327 whole entry): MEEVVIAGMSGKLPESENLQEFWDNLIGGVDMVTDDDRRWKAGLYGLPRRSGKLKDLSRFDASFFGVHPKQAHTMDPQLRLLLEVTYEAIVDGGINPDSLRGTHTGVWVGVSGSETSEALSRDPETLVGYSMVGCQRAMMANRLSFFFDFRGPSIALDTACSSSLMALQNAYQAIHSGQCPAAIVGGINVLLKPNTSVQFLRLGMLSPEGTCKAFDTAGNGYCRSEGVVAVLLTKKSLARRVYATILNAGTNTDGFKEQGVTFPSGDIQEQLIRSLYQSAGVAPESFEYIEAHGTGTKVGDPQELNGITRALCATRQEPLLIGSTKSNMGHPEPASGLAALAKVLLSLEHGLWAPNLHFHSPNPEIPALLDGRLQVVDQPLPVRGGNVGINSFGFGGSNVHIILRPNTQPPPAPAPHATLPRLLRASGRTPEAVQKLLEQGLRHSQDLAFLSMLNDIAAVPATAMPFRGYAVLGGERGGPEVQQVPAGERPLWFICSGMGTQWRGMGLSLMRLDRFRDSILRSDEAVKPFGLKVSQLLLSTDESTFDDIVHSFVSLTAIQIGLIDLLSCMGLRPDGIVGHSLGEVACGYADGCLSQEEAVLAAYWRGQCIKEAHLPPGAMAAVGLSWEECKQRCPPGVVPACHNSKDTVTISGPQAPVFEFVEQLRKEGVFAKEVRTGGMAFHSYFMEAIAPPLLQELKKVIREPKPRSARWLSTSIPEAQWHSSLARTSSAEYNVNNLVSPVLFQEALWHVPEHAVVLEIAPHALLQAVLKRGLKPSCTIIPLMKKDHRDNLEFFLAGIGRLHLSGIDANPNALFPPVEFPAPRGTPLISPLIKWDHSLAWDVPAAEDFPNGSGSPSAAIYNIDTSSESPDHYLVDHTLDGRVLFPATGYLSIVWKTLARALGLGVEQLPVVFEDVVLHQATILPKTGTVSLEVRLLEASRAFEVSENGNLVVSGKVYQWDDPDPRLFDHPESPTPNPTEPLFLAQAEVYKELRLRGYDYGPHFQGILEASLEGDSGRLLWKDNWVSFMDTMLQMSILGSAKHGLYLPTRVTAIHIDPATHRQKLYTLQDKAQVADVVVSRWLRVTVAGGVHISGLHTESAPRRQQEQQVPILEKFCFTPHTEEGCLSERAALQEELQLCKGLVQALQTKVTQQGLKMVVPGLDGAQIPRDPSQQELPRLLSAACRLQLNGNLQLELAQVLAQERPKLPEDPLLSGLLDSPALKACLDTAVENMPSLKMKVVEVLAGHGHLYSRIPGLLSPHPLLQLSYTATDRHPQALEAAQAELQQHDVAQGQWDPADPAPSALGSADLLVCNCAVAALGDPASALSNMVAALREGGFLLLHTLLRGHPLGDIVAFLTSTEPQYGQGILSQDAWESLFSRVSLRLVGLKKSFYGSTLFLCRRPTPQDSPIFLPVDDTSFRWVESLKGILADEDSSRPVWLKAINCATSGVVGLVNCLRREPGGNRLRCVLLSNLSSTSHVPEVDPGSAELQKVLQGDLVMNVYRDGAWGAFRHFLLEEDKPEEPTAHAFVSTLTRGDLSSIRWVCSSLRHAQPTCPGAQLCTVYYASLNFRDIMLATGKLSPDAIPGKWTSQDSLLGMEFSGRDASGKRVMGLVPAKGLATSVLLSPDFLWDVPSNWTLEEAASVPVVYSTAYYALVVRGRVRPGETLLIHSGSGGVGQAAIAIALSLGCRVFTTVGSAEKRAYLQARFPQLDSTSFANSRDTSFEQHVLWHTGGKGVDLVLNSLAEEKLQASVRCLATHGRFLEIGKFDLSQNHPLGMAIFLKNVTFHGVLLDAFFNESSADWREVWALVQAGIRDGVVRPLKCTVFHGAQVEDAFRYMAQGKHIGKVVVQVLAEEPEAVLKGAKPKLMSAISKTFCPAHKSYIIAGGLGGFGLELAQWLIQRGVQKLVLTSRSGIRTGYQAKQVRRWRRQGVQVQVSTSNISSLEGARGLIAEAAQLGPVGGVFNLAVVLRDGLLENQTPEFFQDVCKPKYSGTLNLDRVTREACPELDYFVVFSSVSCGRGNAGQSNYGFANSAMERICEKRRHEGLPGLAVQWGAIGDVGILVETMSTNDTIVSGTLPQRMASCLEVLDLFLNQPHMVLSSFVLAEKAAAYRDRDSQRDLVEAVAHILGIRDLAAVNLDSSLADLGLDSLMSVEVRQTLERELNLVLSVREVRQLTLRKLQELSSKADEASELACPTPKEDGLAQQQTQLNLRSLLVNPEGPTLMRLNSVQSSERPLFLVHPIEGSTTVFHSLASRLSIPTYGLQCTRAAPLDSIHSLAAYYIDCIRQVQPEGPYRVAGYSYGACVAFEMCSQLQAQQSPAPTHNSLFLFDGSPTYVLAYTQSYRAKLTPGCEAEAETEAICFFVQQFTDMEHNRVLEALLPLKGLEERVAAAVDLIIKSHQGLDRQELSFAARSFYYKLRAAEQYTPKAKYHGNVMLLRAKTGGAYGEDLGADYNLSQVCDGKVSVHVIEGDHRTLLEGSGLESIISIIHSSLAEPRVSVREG

[8] = target: T3, Fatty acid synthase; experiment: inhibition of human FAS-TE enzyme activity – biochemical, endpoint fluorescence intensity, uHTS hits, dose response (AID 624327); type: functional;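 note: fluorescence from hydrolysis of an O-methyl fluorescein acyl ester substrate by the enzyme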
[9] = cells; type: functional
[10] = Luminescence Cell-Based Dose Retest to Confirm Inhibitors of Cancer Stem Cells. [Related pubchem assays (depositor defined):AID2717, AID2721]; type: functional; settings: Homo sapiens
[11] = test system: Streptococcus sp. 'group A'; experiment: Streptococcus pyogenes SK(-)GAS viability under kanamycin – luminescence, BacTiterGlo, confirmation, counter-screen for streptokinase expression inhibitor project, dose response (AID 1900); type: functional, organism-based
[12] = Trypanosoma cruzi growth suppression in host cells – NIH3T3 host cells, beta-gal luminescence, confirmation (AID 2044); type: functional, cell-based;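 note: intracellular parasites grown in NIH/3T3 mouse fibroblasts as host cells; luminescent beta-galactosidase reporter signal from transgenic T. cruzi replicating inside host cells; inhibitors lower the luminescence signal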
[13] = NIH3T3 cell viability loss – ATP luminescence, mouse fibroblasts, counter-screen, dose response (AID 2010); type: functional, cell-based;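 note: cells exposed to compound for about 90 hours before reading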
[14] = test system: Streptococcus; experiment: GAS UMAA2166 growth inhibition – luminescence, BacTiterGlo, counter-screen for streptokinase expression inhibitor project, dose response (AID 1915); type: functional, organism-based;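 note: potency for reduction of bacterial viability or growth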
[15] = test system: Vero; experiment: cells; type: functional; settings: Chlorocebus sabaeus
[16] = target: Paired box protein Pax-8 (Homo sapiens, UniProt Q06710); experiment: PAX8 transcriptional activity inhibition in RMG-I – RMG-I cells, luciferase, cherry-pick, dose response (AID 687027); type: functional, cell-based;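 note: luciferase reporter driven by Pax8 target thyroperoxidase promoter measured by SteadyGlo luminescence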
Chain of Paired box protein Pax-8 (Q06710 whole entry): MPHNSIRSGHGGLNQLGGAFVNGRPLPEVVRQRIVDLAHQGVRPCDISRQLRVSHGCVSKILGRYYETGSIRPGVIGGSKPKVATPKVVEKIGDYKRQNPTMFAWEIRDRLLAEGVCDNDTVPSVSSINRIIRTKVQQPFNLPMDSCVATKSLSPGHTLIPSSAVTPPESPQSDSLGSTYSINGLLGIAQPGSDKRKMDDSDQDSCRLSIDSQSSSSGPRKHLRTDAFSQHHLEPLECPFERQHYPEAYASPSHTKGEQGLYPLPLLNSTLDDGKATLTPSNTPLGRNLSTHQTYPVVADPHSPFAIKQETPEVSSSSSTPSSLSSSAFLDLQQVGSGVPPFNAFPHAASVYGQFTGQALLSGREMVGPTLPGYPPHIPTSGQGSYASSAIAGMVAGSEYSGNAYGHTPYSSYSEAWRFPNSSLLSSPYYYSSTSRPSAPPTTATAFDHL

[17] = A549 cell cytotoxicity, dose response, cytotoxicity control, plate reader, cherry-pick, antagonist series (AID 743412); type: functional, cell-based
[18] = toxicity toward HepG2 liver cells – cell-based, plate reader, cherry-pick, antagonist series, cytotoxicity control, dose response (AID 743416); type: functional
[19] = blockade of melanocortin 4 receptor signaling – cell-based, plate reader, cherry pick, counter-screen for LGR2 antagonist project, dose response (AID 743444); type: functional;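 note: transfected HEK 293 cells stimulated with alpha-MSH peptide; potency of inhibitors of the alpha-MSH evoked signal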

CCc1noc(C)c1C(=O)Nc1nc(-c2ccc(F)cc2)c(C)s1
CC50 [1]: > 40 µM (active)

Cc1cc(-c2cccs2)c2c(N)c(C(=O)c3ccc4c(c3)OCO4)sc2n1
EC50 [2]: 7.29 µM (active)

O=[N+]([O-])c1cccc(CN2CCN(c3cccc4[nH]ccc34)CC2)c1
AC50 [3]: 2.06 µM (active)
IC50 [4]: 45.4 µM (active)

CC(C)CCn1c(SCCc2ccccc2)nc2c1c(=O)[nH]c(=O)n2C
EC50 [5]: 30.9 µM (active)
EC50 [6]: 35.6 µM (active)

CC(Cc1ccccc1)NC(=O)c1cc([N+](=O)[O-])ccc1Cl (stereo not given)
IC50 [7]: 5.85 µM (active)
IC50 [8]: 5.69 µM (active)

Cc1noc(/C=C/c2ccco2)c1S(=O)(=O)N1CCC(C(=O)N2CCc3ccccc3C2)CC1
EC50 [5]: 24.8 µM (active)
EC50 [6]: 26.9 µM (active)

Cc1ccc(NS(=O)(=O)c2ccc(C(=O)N3CCCC(C(F)(F)F)C3)cc2)cc1 (stereo not given)
EC50 [2]: 5.17 µM (active)

CC(C)(C)N1C(=O)[C@H]2[C@@H](c3ccc(Br)cc3)N3C(=O)N(c4ccc(Br)cc4)C(=O)[C@@]3(Cc3ccccc3)[C@H]2C1=O
IC50 [7]: 10.5 µM (active)
IC50 [8]: 10.3 µM (active)

Cc1cccc(Oc2ccc(NC(=O)c3ccccc3C(=O)O)cc2)c1
AC50 [3]: 5.07 µM (active)

O=C(CSc1nnc(SCc2cccc3ccccc23)s1)N=Nc1c(O)[nH]c2ccccc12
EC50 [5]: 13.6 µM (active)
EC50 [6]: 10.8 µM (active)

CCCOP(=O)(OCCC)c1c([N+](=O)[O-])cc(C(F)(F)F)cc1[N+](=O)[O-]
CC50 [1]: 24.2 µM (active)

Cc1cccc(NC(=O)COc2ccc(Br)cc2)n1
IC50 [9]: 23.4 µM (active)

Cc1sc2nc(CN3CCCC3)nc(Cl)c2c1C
EC50 [5]: 16.2 µM (active)
EC50 [6]: 11.2 µM (active)

COc1ccc(-c2csc3nc(-c4ccccc4F)oc(=O)c23)cc1
IC50 [7]: 1.16 µM (active)
IC50 [8]: 2.83 µM (active)

COC(=O)C1CSC(C(=O)OC)N1C(=O)CN1CCN(c2ccccc2)CC1 (stereo not given)
AC50 [3]: 2.84 µM (active)

CCCCn1c(NC(C)CC)nc2c1c(=O)[nH]c(=O)n2C (stereo not given)
AC50 [3]: 4.01 µM (active)

COc1cc(C(=O)NCC(c2cccnc2)N2CCN(c3ccccc3)CC2)cc(OC)c1OC (stereo not given)
AC50 [3]: 3.41 µM (active)

COc1ccc(CNC(=O)/C=C/c2cc([N+](=O)[O-])ccc2OC(F)F)cc1OC
IC50 [7]: 3.28 µM (active)

CCOc1ccc(N2CCc3c(C)nc(SC)nc32)cc1
CC50 [1]: 34.9 µM (active)

COc1cc(N(C(=O)Cc2cccs2)C(C(=O)NC2CCCCC2)c2ccc(C)cc2)ccc1-n1cnnn1 (stereo not given)
EC50 [5]: 8.44 µM (active)
EC50 [6]: 8.86 µM (active)

Cc1ccc(-c2nc(Nc3cccc(C)c3)sc2CC(=O)O)cc1
AC50 [3]: 9.95 µM (active)

Cn1c(CNc2ccc(Br)cc2)nc2ccccc21
AC50 [3]: 14.6 µM (active)

Cc1cc(C)nc(NC(N)=Nc2ccc(CC(=O)OC(C)C)cc2)n1
EC50 [2]: 2.56 µM (active)

Cc1nnc2sc(SCc3cccc(Cl)c3)nn2c1=O
AC50 [3]: 0.175 µM (active)
AC50 [10]: 34.2 µM (active)

CCCCN(C)C(=O)Cc1c(OC)ccc2cc(Br)ccc12
CC50 [1]: > 40 µM (active)

Cc1c(C(=O)Nc2nc3ccccc3[nH]2)oc2c(Cl)cccc12
EC50 [11]: 1.72 µM (active)
EC50 [12]: 1.68 µM (active)
CC50 [1]: 32.4 µM (active)
EC50 [13]: > 60 µM (not active)
EC50 [14]: 8.37 µM (active)

CC1(C)CC(=O)CC(C2(O)C(=O)N(Cc3ccccc3)c3ccccc32)O1 (stereo not given)
EC50 [5]: 17.7 µM (active)
EC50 [6]: 17.4 µM (active)

Cc1cccc(C)c1NC(=O)NCCCN1CCN(c2ccccc2)CC1
AC50 [3]: 89.4 µM (active)

O=[N+]([O-])c1cc(-c2csc(NCCc3nc4cc(Cl)c(Cl)cc4n3CCCO)n2)ccc1Cl
IC50 [7]: 2.55 µM (active)
IC50 [8]: 2.49 µM (active)

CCc1nonc1NC(=O)COc1ccc(Cl)c(C)c1
IC50 [9]: 17 µM (active)

O=C(CCc1ccccc1)N1CCN(c2ccc(F)cc2)CC1
AC50 [3]: 13.8 µM (active)

COC(=O)c1scc(C)c1NC(=O)c1ccccc1F
EC50 [2]: > 53 µM (inactive)

C[C@H](CO)N1C[C@H](C)[C@@H](CN(C)C(=O)Nc2ccccc2)Oc2c(NC(=O)Nc3ccc(C(F)(F)F)cc3)cccc2C1=O
IC50 [7]: 2.08 µM (active)
IC50 [8]: 2.24 µM (active)

O=[N+]([O-])c1cc(-c2csc(NCCc3nc4cc(C(F)(F)F)ccc4n3CCCO)n2)ccc1Cl
IC50 [7]: 3.93 µM (active)
IC50 [8]: 5.17 µM (active)

S=C(NCCc1ccccc1)N1Cc2cc(Br)ccc2-n2nncc2C1
IC50 [7]: 7.04 µM (active)
IC50 [8]: 12.1 µM (active)

CC(=O)Nc1ccc(S(=O)(=O)N2CN(c3ccc(C)cc3)c3nc4ccccc4nc32)cc1
CC50 [15]: > 25 µM (active)

CCOC(CNCc1cc(C)c2[nH]c3ccccc3c2c1C)OCC
CC50 [15]: 22.6 µM (active)

CN(Cc1cnn(-c2ccccc2)c1)C(=O)c1ccc(S(=O)(=O)NCc2ccco2)cc1
CC50 [15]: 14.4 µM (active)

CC1(C)CS/C(=N\Cc2ccccc2)N1C(=O)c1cccc([N+](=O)[O-])c1
EC50 [2]: 7.16 µM (active)

C[C@@H]1CN([C@H](C)CO)C(=O)c2cc(NC(=O)Nc3ccc(C(F)(F)F)cc3)ccc2O[C@@H](C)CCCCO[C@H]1CN(C)Cc1ccc(Cl)c(Cl)c1
AC50 [16]: 6.74 µM (active)

OC[C@H]1[C@@H](c2ccc(-c3ccc(F)cc3)cc2)[C@@H]2CN(Cc3ccccn3)CCCCN12
AC50 [17]: 22 µM (active)
AC50 [18]: 19.1 µM (active)
AC50 [19]: 37.5 µM (active)

C[C@H](CO)N1C[C@H](C)[C@H](CN(C)C(=O)Cc2ccccc2)OCCCC[C@H](C)Oc2ccc(NC(=O)Nc3ccc(C(F)(F)F)cc3)cc2C1=O
AC50 [18]: 35 µM (active)
AC50 [19]: 4.79 µM (active)

CCOC(=O)COc1ccc2c(=O)cc(-c3ccccc3)oc2c1 [EFLOXATE]
IC50 [9]: < 0.1 µM (active)
